Results as given in PMC8667942 (Journal of Enzyme Inhibition and Medicinal Chemistry, 2021).

What was measured:
human IP6K2 = molecular target: T1, human IP6K2 (Homo sapiens, UniProt Q9UHH9); assay: IP6K2 inhibition assay (ADP Glo kinase assay); format: biochemical; details: purified human IP6K2, 10 μM IP6, 10 μM ATP, 8-dose, triplicate, mean ± SEM
T1 construct: made in house; host or cells: Sf9 insect cells (baculovirus)
T1 sequence (Q9UHH9 1-426): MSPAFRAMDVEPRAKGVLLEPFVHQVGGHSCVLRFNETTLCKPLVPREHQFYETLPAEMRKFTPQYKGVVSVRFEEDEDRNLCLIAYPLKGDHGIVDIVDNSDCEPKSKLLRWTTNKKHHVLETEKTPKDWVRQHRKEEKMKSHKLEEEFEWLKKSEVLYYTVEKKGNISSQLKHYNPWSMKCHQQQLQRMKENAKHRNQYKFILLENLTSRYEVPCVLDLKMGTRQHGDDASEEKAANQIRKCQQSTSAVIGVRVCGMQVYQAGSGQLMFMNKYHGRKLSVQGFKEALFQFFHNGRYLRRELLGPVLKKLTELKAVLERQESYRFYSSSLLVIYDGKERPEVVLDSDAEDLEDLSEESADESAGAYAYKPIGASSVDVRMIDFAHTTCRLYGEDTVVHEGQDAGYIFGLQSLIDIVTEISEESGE
Method: Full-length human IP6K2 cDNA was subcloned into pFASTBAC1 plasmid (Gibco) with an N-terminal FLAG epitope sequence, and baculovirus was generated according to the manufacturer’s instructions. Sf9 insect cells were infected with baculovirus and incubated for 72 h. The cells were resuspended in lysis buffer [20 mM Tris–HCl (pH 7.9), 500 mM NaCl, 4 mM MgCl2, 0.4 mM EDTA, 2 mM DTT, 20% glycerol, 1 mM PMSF, and protease inhibitor cocktail (Roche)] and then disrupted with a Dounce homogeniser (pestle A, 3 series of 10 strokes with 10 min interval).
IP6K2 activity was measured using ADP Glo assay kit (Promega). All kinase assays were performed in low volume 384-well white plates (784075, Greiner-bioone) with a final volume of 5 μL. The reaction buffer contained 2 ng Flag-hIP6K2, 10 μM IP6, and 10 μM ATP in kinase buffer (50 mM Tris, 10 mM MgCl2, 2.5 mM DTT, 0.02% Triton-X-100, pH 6.8)[26]. For dose-dependent inhibition assay, 8 serial 2-fold dilutions of test compounds were prepared in DMSO. The final DMSO concentration was 5% in each reaction. The test compounds (5X, 25% DMSO in 1X kinase buffer) were dispensed to each well, and 2.5 X IP6K2 in kinase buffer were added. After 15 min incubation at room temperature, 2.5 X concentrations of IP6 and ATP were added to the plate. The reaction plate was incubated in a 37 °C incubator for 30 min. Next, the reactions were quenched with 5 μL of ADP Glo reagent for 40 min to deplete the remaining ATP. To convert the remaining ADP to ATP, 10 μl of detection reagent were added and incubated for 30–60 min. The luminescence of the final reactants was measured using the Mithras LB940 plate reader from Berthold. Samples were run in triplicate and the activity (%) was calculated using the following equations; Activity (%) = 100 × (μexperimental–μnegative)/(μpositive–μnegative). Negative control was DSMO-treated reaction. IC50 value was estimated using a logistic regression model with R package.

IP6K = details: [ATP] = 1 mM; cited from earlier work

In the case of `O=[N+]([O-])c1ccc(CNc2nc(NCc3cccc(C(F)(F)F)c3)nc3[nH]cnc23)cc1` [TNP, N^6-[(4-nitrophenyl)methyl]-N^2-[[3-(trifluoromethyl)phenyl]methyl]-9H-purine-2,6-diamine], the IC50 (human IP6K2) is listed as 4500 ± 400 nM and the IC50 (IP6K) is listed as 470 nM.
